Assay results from ChEMBL document CHEMBL1201862, “PubChem BioAssay data set” (2004).
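Exposure lasted 48 hours, with cells grown in 96-well plates and compounds tested at five concentrations. GI50 is the concentration that inhibits growth by half.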 The source made the active and inactive calls. Cut-off read from the data, not from the text of the source: active = GI50 up to about 1.1 µM and inactive = higher.

How the values were obtained:
Assay in all cases: inhibition of tumour cell growth, NCI panel, 48 h
[1] = test system: SK-MEL-2
[2] = test system: 786-0
[3] = test system: TK-10
[4] = test system: U-251
[5] = test system: SW-620
[6] = test system: LOX IMVI
[7] = test system: OVCAR-8
[8] = test system: MOLT-4
[9] = test system: M14
[10] = test system: NCI-H460
[11] = test system: SN12C
[12] = test system: HCT-116
[13] = test system: ACHN
[14] = test system: CAKI-1
[15] = test system: MDA-MB-435
[16] = test system: UACC-257
[17] = test system: MDA-MB-231
[18] = test system: SNB-75
[19] = test system: UO-31
[20] = test system: SF-295
[21] = test system: SK-MEL-5
[22] = test system: SR
[23] = test system: KM12
[24] = test system: NCI-H23
[25] = test system: MDA-N
[26] = test system: NCI/ADR-RES
[27] = test system: HOP-92
[28] = test system: OVCAR-3
[29] = test system: HCC 2998
[30] = test system: IGROV-1
[31] = test system: PC-3
[32] = test system: COLO 205
[33] = test system: SF-268
[34] = test system: EKVX
[35] = test system: SK-MEL-28
[36] = test system: A498
[37] = test system: A549
[38] = test system: HCT-15
[39] = test system: RXF 393
[40] = test system: CCRF-CEM
[41] = test system: MCF7
[42] = test system: NCI-H522
[43] = test system: SF-539
[44] = test system: K562
[45] = test system: HOP-62
[46] = test system: Hs-578T
[47] = test system: Malme-3M
[48] = test system: OVCAR-4
[49] = test system: HT-29
[50] = test system: OVCAR-5
[51] = test system: SK-OV-3
[52] = test system: NCI-H226
[53] = test system: RPMI-8226
[54] = test system: SNB-19
[55] = test system: T47D
[56] = test system: DU-145
[57] = test system: HL-60
[58] = test system: UACC-62
[59] = test system: BT-549

Measured: GI50

O=C1c2c(ccc3c2CCC3)CC12Cc1cc3c(cc1C2)CCC3
inactive: [1] > 100 µM | [2] > 100 µM | [3] > 100 µM | [4] 70.3 µM | [5] > 100 µM | [6] > 100 µM | [7] > 100 µM | [8] > 100 µM | [9] > 100 µM | [10] > 100 µM | [11] > 100 µM | [12] > 100 µM | [13] > 100 µM | [14] > 100 µM | [15] > 100 µM | [16] > 100 µM | [17] > 100 µM | [18] 87.7 µM | [19] > 100 µM | [20] > 100 µM | [21] > 100 µM | [22] > 100 µM | [23] > 100 µM | [24] > 100 µM | [25] > 100 µM | [26] > 100 µM | [27] > 100 µM | [28] > 100 µM | [29] > 100 µM | [30] > 100 µM | [31] > 100 µM | [32] > 100 µM | [33] > 100 µM | [34] > 100 µM | [35] > 100 µM | [36] > 100 µM | [37] > 100 µM | [39] > 100 µM | [40] > 100 µM | [41] > 100 µM | [42] > 100 µM | [43] > 100 µM | [44] > 100 µM | [45] > 100 µM | [46] > 100 µM | [47] 20.1 µM | [48] > 100 µM | [49] > 100 µM | [50] > 100 µM | [51] > 100 µM | [52] > 100 µM | [53] > 100 µM | [54] > 100 µM | [55] > 100 µM | [56] > 100 µM | [57] > 100 µM
> 100 µM: [38]

CN(C)/C=N\c1c(Br)cc(Br)c2nonc12
inactive: [1] > 100 µM | [2] > 100 µM | [3] > 100 µM | [5] > 100 µM | [7] > 100 µM | [8] > 100 µM | [9] > 100 µM | [10] > 100 µM | [11] > 100 µM | [12] > 100 µM | [58] > 100 µM | [13] > 100 µM | [14] > 100 µM | [15] > 100 µM | [16] > 100 µM | [17] > 100 µM | [18] 44.3 µM | [19] > 100 µM | [20] > 100 µM | [21] > 100 µM | [22] > 100 µM | [23] > 100 µM | [24] > 100 µM | [25] > 100 µM | [26] > 100 µM | [27] 85.7 µM | [28] > 100 µM | [29] > 100 µM | [30] > 100 µM | [31] > 100 µM | [32] > 100 µM | [33] > 100 µM | [34] > 100 µM | [35] > 100 µM | [36] > 100 µM | [37] > 100 µM | [39] > 100 µM | [40] > 100 µM | [41] > 100 µM | [42] > 100 µM | [43] > 100 µM | [44] > 100 µM | [45] > 100 µM | [46] 66.4 µM | [47] > 100 µM | [48] > 100 µM | [49] > 100 µM | [50] > 100 µM | [51] > 100 µM | [52] > 100 µM | [53] > 100 µM | [54] > 100 µM | [55] > 100 µM | [56] > 100 µM | [57] > 100 µM
> 100 µM: [38]

O=C(Nc1ccc(Cl)cc1)c1cc2c(cc1Cl)SC(NNCCO)=NS2(=O)=O
inactive: [1] > 100 µM | [2] > 100 µM | [3] > 100 µM | [4] > 100 µM | [5] > 100 µM | [6] > 100 µM | [7] > 100 µM | [8] > 100 µM | [9] > 100 µM | [10] > 100 µM | [12] > 100 µM | [58] > 100 µM | [13] > 100 µM | [14] > 100 µM | [15] > 100 µM | [16] > 100 µM | [17] > 100 µM | [18] > 100 µM | [19] > 100 µM | [20] > 100 µM | [21] > 100 µM | [22] > 100 µM | [23] > 100 µM | [59] > 100 µM | [24] > 100 µM | [26] > 100 µM | [27] 92.3 µM | [29] > 100 µM | [30] > 100 µM | [31] > 100 µM | [32] 49.7 µM | [33] > 100 µM | [34] > 100 µM | [35] > 100 µM | [36] 17.6 µM | [39] > 100 µM | [40] > 100 µM | [41] 98.9 µM | [43] > 100 µM | [44] 27.9 µM | [45] > 100 µM | [46] > 100 µM | [48] > 100 µM | [49] > 100 µM | [51] > 100 µM | [52] > 100 µM | [53] > 100 µM | [54] > 100 µM | [55] 24.8 µM | [56] > 100 µM | [57] > 100 µM
> 100 µM: [38]
